Assay results published in the supplement of paper PMC5908809.

Legend:
[1] = system: normal NK cells expanded with K562-aAPC; assay: drug sensitivity score (DSS) (DSS units); higher = more sensitive; extreme values may be limits of the assay; settings: 72 h; IL-2 2.5 ng/mL
Description: (§1)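 Drug sensitivity and resistance testing on K562-aAPC-expanded normal NK cells: 5 concentrations (10-fold steps over a 10,000-fold range), 72 h at 37 °C, viability by CellTiter-Glo normalised to DMSO and benzethonium chloride controls; DSS from the fitted curve.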

[2] = system: normal primary NK cells, pool 1 (3 donors), resting (IL-2 0 ng/mL); assay: percent inhibition of viability; higher = more inhibition; settings: 72 h
[3] = system: normal primary NK cells, pool 1 (3 donors) (IL-2 2.5 ng/mL); assay: as above; settings: 72 h
[4] = system: KAI3 (IL-2 2.5 ng/mL); assay: as above; settings: 72 h
[5] = system: YT (IL-2 2.5 ng/mL); assay: as above; settings: 72 h
[6] = system: NKL (IL-2 2.5 ng/mL); assay: as above; settings: 72 h
[7] = system: NK-92 (IL-2 2.5 ng/mL); assay: as above; settings: 72 h
[8] = system: DERL-7 (IL-2 2.5 ng/mL); assay: as above; settings: 72 h
[9] = system: normal primary NK cells, pool 2 (3 donors) (IL-2 2.5 ng/mL); assay: as above; settings: 72 h
[10] = system: normal primary NK cells, pool 3 (3 donors) (IL-2 2.5 ng/mL); assay: as above; settings: 72 h
[11] = system: NK-YS (IL-2 2.5 ng/mL); assay: as above; settings: 72 h
[12] = system: SNK-6 (IL-2 2.5 ng/mL); assay: as above; settings: 72 h
[13] = system: KHYG-1 (IL-2 2.5 ng/mL); assay: as above; settings: 72 h
[14] = system: IMC-1 (IL-2 20 ng/mL); assay: as above; settings: 72 h
[15] = system: normal NK cells expanded with K562-aAPC; assay: as above; settings: 72 h, IL-2 2.5 ng/mL
Description: as §1

[16] = system: normal primary NK cells, pool 1 (3 donors), resting (IL-2 0 ng/mL); assay: drug sensitivity score (DSS) (DSS units); higher = more sensitive; extreme values may be limits of the assay; settings: 72 h
[17] = system: normal primary NK cells, pool 1 (3 donors) (IL-2 2.5 ng/mL); assay: as above; settings: 72 h
[18] = system: KAI3 (IL-2 2.5 ng/mL); assay: as above; settings: 72 h
[19] = system: YT (IL-2 2.5 ng/mL); assay: as above; settings: 72 h
[20] = system: NKL (IL-2 2.5 ng/mL); assay: as above; settings: 72 h
[21] = system: NK-92 (IL-2 2.5 ng/mL); assay: as above; settings: 72 h
[22] = system: DERL-7 (IL-2 2.5 ng/mL); assay: as above; settings: 72 h
[23] = system: normal primary NK cells, pool 2 (3 donors) (IL-2 2.5 ng/mL); assay: as above; settings: 72 h
[24] = system: normal primary NK cells, pool 3 (3 donors) (IL-2 2.5 ng/mL); assay: as above; settings: 72 h
[25] = system: NK-YS (IL-2 2.5 ng/mL); assay: as above; settings: 72 h
[26] = system: SNK-6 (IL-2 2.5 ng/mL); assay: as above; settings: 72 h
[27] = system: KHYG-1 (IL-2 2.5 ng/mL); assay: as above; settings: 72 h
[28] = system: IMC-1 (IL-2 20 ng/mL); assay: as above; settings: 72 h

COc1ccc(C[C@H](NC(=O)[C@H](C)NC(=O)CN2CCOCC2)C(=O)N[C@@H](Cc2ccccc2)C(=O)C2(C)CO2)cc1 (stereo in doubt) [ONX-0914] (max concentration tested 10000 nM)
Settings	drug sensitivity score
[1]	24.8
[16]	31.9
[17]	30.5
[18]	32.9
[19]	26.3
[20]	30.9
[21]	31.6
[22]	32.7
[23]	30.7
[24]	26.7
[25]	28.6
[26]	25.6
[27]	22.3
[28]	21.7

percent inhibition of viability [%]
Settings	1 nM	10 nM	100 nM	1000 nM	10000 nM
[2]	-25.3	21.3	91	96.4	97.3
[3]	-4.25	8.47	92.5	100	100
[4]	12.7	28.5	93.7	106	102
[5]	-1.7	3.7	69.5	104	101
[6]	10.8	1.76	103	106	102
[7]	-8.67	15.8	93.1	106	102
[8]	6.02	28.7	92.2	101	101
[9]	-9.54	18.2	87.2	99.6	99.8
[10]	-6.21	2.14	73.6	99.9	100
[11]	13.1	15.9	75	105	102
[12]	-1.52	17.8	58.1	101	101
[13]	-0.77	1.13	29.1	104	101
[14]	2.14	-0.04	24.1	100	101
[15]	6.48	5.84	57.1	101	101

CNC(=O)c1cc(Oc2ccc(NC(=O)Nc3cc(C(C)(C)C)nn3-c3ccc4ncccc4c3)c(F)c2)ccn1 [Rebastinib] (max concentration tested 1000 nM)
Settings	drug sensitivity score
[1]	0
[16]	0
[17]	0
[18]	0
[19]	0
[20]	0
[21]	0
[22]	0
[23]	0
[24]	0
[25]	0
[26]	0
[27]	0
[28]	0

percent inhibition of viability [%]
Settings	0.1 nM	1 nM	10 nM	100 nM	1000 nM
[2]	-11.2	-7.34	-6.2	-15.4	1.95
[3]	-3.76	-8.51	-9.53	-4.2	-12.7
[4]	7.99	9.63	10.5	5.1	-6.78
[5]	-4.61	-3.15	-0.26	1.61	-0.37
[6]	-2.2	-3.91	-1.3	8.69	5.2
[7]	-1.88	1.51	-1.48	0.06	-12.8
[8]	-4.96	1.69	-0.5	-4.52	-8.09
[9]	-4.03	-4.97	-4.4	-1.73	-9.3
[10]	-9.69	-6.19	-1.5	-11	-8.81
[11]	-1.58	-3.98	-0.95	1.01	2.92
[12]	7.77	13.4	-14.2	1.04	-59.9
[13]	-2.88	-0.08	0.01	-1.2	-8.03
[14]	0.93	7.15	-1.23	1.86	-6.19
[15]	-1.77	-3.86	-0.78	-3.03	-4.18

CC1=C(/C=C/C(C)=C/C=C/C(C)=C/C(=O)O)C(C)(C)CCC1 [Tretinoin] (max concentration tested 10000 nM)
Settings	drug sensitivity score
[1]	0
[16]	3.02
[17]	0
[18]	0.68
[19]	0
[20]	4.28
[21]	0
[22]	0
[23]	0
[24]	0
[25]	2.28
[26]	0
[27]	4.32
[28]	0

percent inhibition of viability [%]
Settings	1 nM	10 nM	100 nM	1000 nM	10000 nM
[2]	-8.15	-5.96	-18.7	18.4	26.4
[3]	-4.29	-17	-11.3	-4.32	10.6
[4]	-2.48	-3.65	-1.2	3.75	16
[5]	-1.46	-2.61	-3.8	-1.99	3.09
[6]	-12.8	-0.36	-1.84	17.5	39.7
[7]	-0.77	-12.9	-9.35	0.15	-0.14
[8]	0.02	-9.97	-17.2	-1.93	1.55
[9]	-8.71	-3.05	-10.2	-13.1	1.08
[10]	-4.65	-2.78	-10.4	-7.74	-8.57
[11]	-3.42	-0.23	9.86	11.1	28.9
[12]	-9.38	11.7	19.6	-4.95	10.5
[13]	-3.1	-0.61	11.5	20.8	33
[14]	-5.65	-8.65	-8.92	-15.6	-11.9
[15]	-4.58	-6.04	-10.1	-14.2	-11.4

CCN1CCN(c2ccc(Nc3cc(N(C)C(=O)Nc4c(Cl)c(OC)cc(OC)c4Cl)ncn3)cc2)CC1 [NVP-BGJ398] (max concentration tested 1000 nM)
Settings	drug sensitivity score
[1]	0
[16]	1.18
[17]	0
[18]	0
[19]	0.2
[20]	0.59
[21]	3.27
[22]	0
[23]	0.05
[24]	0
[25]	0
[26]	0
[27]	1.3
[28]	0

percent inhibition of viability [%]
Settings	0.1 nM	1 nM	10 nM	100 nM	1000 nM
[2]	-6.47	4.3	1.93	4.77	19.9
[3]	4.34	9.33	11.6	4.78	12.1
[4]	-2.53	-7.26	-1.75	2.95	5.14
[5]	-2.36	0.47	-1.37	5.31	11.7
[6]	-0.94	-7.47	0.95	4.24	15
[7]	-11.4	1.56	9.63	19.4	17.8
[8]	2.66	5.38	2.13	4.05	8.48
[9]	-8.08	5.48	12.3	1.57	12.6
[10]	-6.2	7.43	9.02	0.22	7.33
[11]	-4.6	-4.02	-4.62	-2.71	6.5
[12]	-1.53	-0.29	-14.4	-13.1	-6.84
[13]	-6.77	-2.35	-1.84	3.9	22.1
[14]	-7.18	3.41	-1.12	4.31	-1.42
[15]	-0.93	-6.78	-4.9	4.74	2.68

O=c1cc(N2CCOCC2)oc2c(-c3ccccc3)cccc12 (max concentration tested 100000 nM)
Settings	drug sensitivity score
[1]	9.96
[16]	12.2
[17]	9.7
[18]	6.11
[19]	8.24
[20]	10.7
[21]	6.84
[22]	13.6
[23]	10.1
[24]	8.63
[25]	10.1
[26]	13.6
[27]	8.95
[28]	4.34

percent inhibition of viability [%]
Settings	10 nM	100 nM	1000 nM	10000 nM	100000 nM
[2]	-0.68	6.88	14.6	52.6	92.9
[3]	-1.05	3.02	7.28	35.5	97.6
[4]	-1.02	-1.63	6.02	25.9	59.6
[5]	1.36	2.44	6.09	37.3	68.7
[6]	-14.3	-15.8	3.05	55.1	69.6
[7]	-5.7	-3.95	-4.94	24	64.1
[8]	0.77	-1.71	9.97	64.1	97.4
[9]	-8.94	-2.33	8.53	41.1	95.9
[10]	-5.94	-9.6	-2.64	20.7	96.5
[11]	-4.69	-3.69	1.75	45.5	83.3
[12]	3.19	3.24	18.5	59.4	92.6
[13]	-1.25	-1.33	4.59	30.1	89.5
[14]	-0.85	-3.31	-2.01	-5.98	86.2
[15]	-2.73	-3.41	4.76	39.4	94.5
